Assay results published in patent publication US20070190651A1, “Myogenic Development and Protection of Stem Cells Against Inflammation and Apoptosis By Statins and Isoprenoid Pathway Inhibitors” (Board of Regents of the University of Texas System, priority 2006, published 2007).
“Also recorded” adds a separate entry of the source.

Key:
Rho kinase = details: cited from earlier work
[1] = injected subcutaneously over the calvaria of mice; cited from earlier work
iNOS [2] = details: cited from earlier work
[3] = orally administered to rats; cited from earlier work
iNOS [4] = details: lovastatin pretreatment; cited from earlier work
iNOS [5] = test: Immunoblotting for iNOS protein in cytokine-stimulated H9c2 cardiac myoblasts; type: cell-based, rat; details: H9c2
Procedure: Cell cultures. H9c2 cells purchased from American Type Culture Collection (ATCC, Rockville, Md.) are spontaneously immortalized ventricular myoblasts from the rat embryo, with preservation of several electrical and biochemical characteristics found in adult cardiomyocytes. They were cultured in DMEM medium (ATCC) supplemented with 10% heat-inactivated fetal bovine serum (FBS) in 95% air and 5% CO2 at 37° C. […] After certain time intervals, 100 μL/well culture media were collected for determination of nitrite production.
Immunoblotting. Total proteins were isolated from rat cardiac myoblasts (H9c2 cells) or embryonic stem cells in an ice-cold lysis buffer containing 10 mmol/L Tris (tris(hydroxymethyl)aminomethane) (pH 7.4), 1% sodium dodecyl sulfate (SDS) and 1× protease inhibitor (1 mmol/L sodium orthovanadate). Proteins (15 μg/lane) were separated under the reducing conditions (125 mM Tris pH 6.8, 4% SDS, 10% glycerol, 0.006% bromophenol blue, 2% β-mercaptoethanol) by electrophoresis onto 5-10% SDS-polyacrylamide gel and electro-blotted to nitrocellulose membranes (Osmonics, Westborough, Mass.). The membranes were reversibly stained with Ponceau red (Sigma) to verify equal protein loading and/or transfer. After blocking in Tris-buffered saline (0.2 M Tris and 8% NaCl) containing 5% non-fat powdered milk and 0.1% Tween 20 for 1 hour at room temperature, the membranes were incubated overnight at 4° C. with following primary antibodies to (a) iNOS (Transduction Laboratories, Lexington, Ky.; BD Biosciences); (b) NF-κB p65/rel (Santa Cruz Biotechnologies, Santa Cruz, Calif.); (c) ser^32-phosphorylated inhibitor IκBα (Santa Cruz); (d) Bad (BD Biosciences, San Jose, Calif.); (e) Bcl-xL (BD Biosciences); (f) proliferating cell nuclear antigen (PCNA; BC Biosciences); (g) ryanodine receptor (Santa Cruze Biotechnology, Inc., Santa Cruz, Calif.); (h) α-sarcomeric actinin (Sigma); (i) myocardin A (developed by immunizing rabbits with a synthetic myocardin A peptide); (j) Tie-2 (Santa Cruz); (k) manganese superoxide dismutase (Santa Cruz); and (1) β-tubulin (Sigma). The blots were incubated with horseradish peroxidase-coupled secondary antibodies, washed and developed by using a SuperSignal West Pico Chemiluminescent Substrate Kit (Pierce, Rockford, Ill.). Intensity of each immunoreactive protein band was quantified by densitometric analysis. Cytokine-stimulated RAW 264.7 cells (Transduction Laboratories, Lexington, Ky.) were used as positive controls.

H9c2 embryonic myoblasts [6] = test: Apoptosis assay (acridine orange and ethidium bromide) in H9c2 embryonic myoblasts; type: cell-based, rat; details: mevalonate 10^−4 mol/l with IL-1 + simvastatin
Procedure: The cells were exposed with IL-1αSimvastatin for 24 hours and then stained with two fluorochromes: acridine orange and ethidium bromide. Living (green fluorescence) and apoptotic (red fluorescence) cells were identified and counted with an Olympus fluorescence microscope connected to a computer imaging station.
(§1) The rat embryonic myogenic cell line H9c2 was commercially obtained from ATCC and maintained in Dulbecco's modified Eagle's medium (GIBCO) supplemented with 10% FBS at 37° C. in 95% air and 5% CO2.
Assays for Apoptosis. Analysis of apoptotic cells was performed by fluorescent microscopy with fluorochromes acridine orange and ethidium bromide (Sigma), as described previously (19). Apoptotic cells were discernible by their condensed, fragmented nuclei stained with both fluorochromes and were counted under a fluorescence microscope (Olympus, Center Valley, Pa.) connected to a computer imaging analysis station.

[7] = test system: murine embryonic stem cells; type: cell-based
Procedure: At day 12, the number of contracting EB outgrowths (Panel A) and extension of beating area (Panel B) were detrmined by morphometry. The results were plotted as percentages of the total EBs counted in each well and shown as the mean ±SD for each of the 3 separate experiments. *, P<0.05 vs untreated control; #, P<0.05 vs simvastatin-treated control.
The murine ESC (mESC) line CCE was obtained from American Type Culture Collection (ATCC, Rockville, Md.). Murine ESCs were cultured without feeder cells in Dulbecco's modified Eagle's medium supplemented with 10% ESC-qualified Fetal Bovine Serum (FBS) (Stem Cell Technologies, Vancouver, Va.), pyruvate (Stem Cell Technologies, stock solution diluted 1:100), 2 mM L-glutamine, nonessential amino acids (Stem Cell Technologies, stock solution diluted 1:100), 100 IU/mL penicillin, 0.1 mg/mL streptomycin, and leukemia inhibitory factor (LIF) (Stem Cell Technologies). To induce differentiation, EBs were formed from undifferentiated mESCs in hanging drops of 400 cells in 20 μL of medium without LIF. After 5 days in suspension, EBs were plated on gelatin-coated dishes and cultured in cardiomyocyte-differentiation medium (Iscove's modified Eagle's medium, supplemented with 15% FBS, 2 mM L-glutamine, 5×10^−5 M β-mercaptoethanol, nonessential aminoacids, 100 IU/mL penicillin, 0.1 mg/mL streptomycin).
Statin Treatment. […] The inhibition of endogenous cholesterol synthesis was the mechanism used for analyzing the effect of endogenous cholesterol depletion on EB differentiation. By days 8 through 12 after plating, spontaneously contracting cell clusters could be observed within the EB outgrowths. Culture media from both simvastatin-treated and untreated cells were changed each day after day 3.
Spontaneous cardiac differentiation of mouse embryonic stem cells (mESCs) was assessed in vitro as the presence of rhythmically beating […] (EB) outgrowth. […] Thereafter, EB outgrowths were counted periodically under the inverted microscope equipped with a digital video camera, to determine whether or not they contained beating foci at different time points (days 3, 5, 7, 10, 12, and 14). At approximately day 7, contracting areas began to appear. […] Concomitant with the increased number of beating EBs, the size of the beating area for simvastatin-treated EBs increased 2-fold (evaluated at day 12) compared to that of untreated control EBs, a significant augmentation (p<0.05) (FIG. 22B).

iNOS [8] = test: Nitrite production (Griess reaction) in H9c2 cardiac myoblasts; type: cell-based, rat; details: added to simvastatin + IL-1α 20 ng/mL
Procedure: Cell cultures. H9c2 cells purchased from American Type Culture Collection (ATCC, Rockville, Md.) are spontaneously immortalized ventricular myoblasts from the rat embryo, with preservation of several electrical and biochemical characteristics found in adult cardiomyocytes. […] After certain time intervals, 100 μL/well culture media were collected for determination of nitrite production. Assay for NO Production. The activity of iNOS was determined in the culture medium by assaying nitrites, taken as an index of NO production, using the Griess reagent (1% sulphanilic acid and 0.1% N-[1-naphtyl] ethylenediamine-HCl in 5% phosphoric acid) as reported previously (4,18,19). Equal volumes of medium and Griess reagent were mixed, and the purple products quantified spectrophotometrically at 550 nm. Nitrite concentrations were determined from a linear standard curve constructed with known concentrations of sodium nitrite (0 to 40 μmol/L nitrite). Nitrite Assays. Nitrite, a stable end-product of nitric oxide, was measured by using Griess reagent (1% sulphanilic acid and 0.1% N-[1-naphtyl] ethylenediamine-HCl in 5% phosphoric acid). Equal volumes of medium and Griess reagent were mixed, and the resulting purple product quantified by spectrophotometric assay at 550 nm. Nitrite concentrations were calculated from a linear standard curve constructed with known concentrations of sodium nitrite (0-14 μmol/L nitrite) (19).

H9c2 embryonic myoblasts [9] = test: Immunoblotting for Bad, Bcl-xL and PCNA in H9c2 embryonic myoblasts with IL-1; type: cell-based, rat; details: L-mevalonate added to simvastatin + IL-1
Procedure: Quantitation of protein bands was achieved by densitometry (Panels D, E and F, bottom). β-Tubulin staining of stripped blots was used as a control. […] PCNA, proliferating cell nuclear antigen; IL-1, interleukin-1-α; iNOS, inducible nitric oxide synthase; MnSOD, manganese superoxide dismutase.
as §1
Immunoblotting. Total proteins were isolated from rat cardiac myoblasts (H9c2 cells) or embryonic stem cells in an ice-cold lysis buffer containing 10 mmol/L Tris (tris(hydroxymethyl)aminomethane) (pH 7.4), 1% sodium dodecyl sulfate (SDS) and 1× protease inhibitor (1 mmol/L sodium orthovanadate). Proteins (15 μg/lane) were separated under the reducing conditions (125 mM Tris pH 6.8, 4% SDS, 10% glycerol, 0.006% bromophenol blue, 2% β-mercaptoethanol) by electrophoresis onto 5-10% SDS-polyacrylamide gel and electro-blotted to nitrocellulose membranes (Osmonics, Westborough, Mass.). The membranes were reversibly stained with Ponceau red (Sigma) to verify equal protein loading and/or transfer. […] Intensity of each immunoreactive protein band was quantified by densitometric analysis. […]

NF-κB p65/RelA = test: Immunoblotting for p65/RelA subunit of NF-κB, total cellular or nuclear proteins of H9c2 cells; type: cell-based, rat; details: simvastatin + IL-1α + L-mevalonate
NF-κB = details: cited from earlier work

In the case of CC[C@H](C)C(=O)O[C@H]1C[C@@H](C)C=C2C=C[C@H](C)[C@H](CC[C@@H]3C[C@@H](O)CC(=O)O3)[C@H]21 [lovastatin], the Rho kinase activity (Rho kinase) is given as “inhibit the Rho kinase activity”, the bone formation [1] is given as “increase bone formation” and the “iNOS and cytokine expression” value (iNOS [2]; rat macrophages, astrocytes, and microglia) is given as “inhibits iNOS and cytokine expression”. For the same compound, the “LPS-induced iNOS expression” value (iNOS [2]; rat primary astrocytes) was “blocks LPS-induced iNOS expression”, the cancellous bone volume [3] was “increased cancellous bone volume” and the “IL-1beta induction of iNOS” value (iNOS [4]) was “superinduction of iNOS”.
With CC(O)(CCO)CC(=O)O [L-mevalonate] the “effect on simvastatin inhibition of cytokine-induced iNOS protein expression” value (iNOS [5]; added to simvastatin + IL-1α or TNF-α) was “reversibly blocked; also recorded: blocks the simvastatin inhibitory effect; also recorded: diminished the inhibitory effect of simvastatin”, the “cytokine-induced iNOS protein expression in the absence of simvastatin” value (iNOS [5]; cytokine-stimulated, no simvastatin) was “no or little effect on cytokine-induced iNOS expression” and the “effect on the simvastatin cytoprotective effect” value (H9c2 embryonic myoblasts [6]) was “diminished”. For the same compound, the “cytotoxicity in EBs” value [7] was “without any cytotoxicity”, the “contracting EBs in the absence of simvastatin” value ([7]; L-mevalonate alone) was “no or little effect on contracting EBs” and the “effect on nitrite production in cells treated with simvastatin plus IL-1α” value (iNOS [8]) was “significantly increased the nitrite concentrations”. For the same compound, the “effect on the simvastatin effect on Bcl-xL” value (H9c2 embryonic myoblasts [9]) was “reversed the statin effect” and the “nuclear p65/rel protein levels in statin-treated, cytokine-stimulated cells” value (NF-κB p65/RelA) was “could elevate the nuclear p65/rel protein levels”.
In the case of CC[C@H](C)C(=O)O[C@H]1CCC=C2C=C[C@H](C)[C@H](CC[C@@H]3C[C@@H](O)CC(=O)O3)[C@H]21 [mevastatin], the “NF-κB activity and NF-κB-dependent VCAM and E-selectin expression” value (NF-κB) is listed as “inactivate NF-κB and reduce NF-κB-dependent expression of the endothelial adhesion proteins”.
